Data from article PMC10380841, “Synthesis, Characterization and Cytotoxic Evaluation of New Pyrrolo[1,2-b]pyridazines Obtained via Mesoionic Oxazolo-Pyridazinones” (International Journal of Molecular Sciences, 2023).
Entries after “also recorded” stand apart in the source; their conditions may differ. Like-named read-outs stand apart in the source and are kept apart here.

Tests used:
[1] = test system: MCF-7 breast adenocarcinoma cells; assay: MTS cytotoxicity assay, MCF-7; format: cell-based, human
Description: Therefore, the precursor acids 2a–c and corresponding pyrrolo[1,2-b]pyridazines 5a–c,f were tested for their potential cytotoxic activity. During the assays, increasing concentrations of the compounds, ranging from […], were added for 24 h or 48 h to cancer LoVo, SK-OV-3, MCF-7, and the reference HUVEC cells, previously cultured for 24 h in 96-well flat bottom plates. […] Then, MTS reagent was added, and cells were incubated for 4 h at 37 °C in a 5% CO2 humidified atmosphere. The absorbance values were spectrophotometrically read to a Dynex ELISA reader at λ = […].
For the evaluation of the in vitro potential anti-proliferative effects of treatments with the new compounds under study against solid tumor-derived cells, several compound-mediated cytotoxicity assays were performed on three adherent tumor standardized cell lines, and normal human endothelial cells, used as control: the MCF-7 human breast adenocarcinoma and SK-OV-3 human ovary adenocarcinoma cell lines were provided from European Collection of Authenticated Cell Cultures (ECACC), while LoVo, human colorectal adenocarcinoma cell line, and HUVEC human umbilical vein endothelial cells were purchased from American Type Culture Collection (ATCC).
Adherent cells were cultivated in DMEM/F12 medium added with 2 mM L-glutamine and 10% fetal bovine serum, 100 units/mL penicillin, 100 µg/mL streptomycin (Sigma Aldrich, St. Louis, MO, USA) and incubated at 37 °C in 5% CO2 humidified atmosphere. The stock solutions for cell treatments were prepared by dissolving the synthesized compounds in a minimum amount of DMSO. Working dilutions were prepared from the stock solutions in culture medium before each treatment assay. After 24 h, when cell cultures achieved around 70% confluence, treatments were applied for various periods of time with different concentrations of synthesized compounds or oncolytic drugs, used as positive controls.
Therefore, cell cultures treated with the new compounds or oncolytic drugs for 24 h or 48 h were further subjected to a colorimetric cell viability method, the MTS assay. The absorbance of probes was read, data were calculated, and percentages of cell viability were assessed.
The evaluation of the compound-induced cytotoxicity was made using the CellTiter 96 Aqueous One Solution Cell Proliferation Assay (Promega, Madison, WI, USA), a reagent that contains both MTS (3-(4,5-dimethylthiazol-2-yl)-5-(3-carboxymethoxyphenyl)-2-(4-sulfophenyl)-2H-tetrazolium, inner salt) and PES ([…], a cationic dye with high chemical stability that binds to MTS and forms a stable solution). The assay is based on the ability of the metabolically active cells to reduce the yellow tetrazolium salt MTS to a compound that is soluble in culture medium, the colored formazan, followed by the spectrophotometric evaluation of its concentration.
Briefly, 1.5 × 10^4 cancer or normal cells were cultured in 100 µL/well for 24 h. After the culture supernatants were discarded, cells were treated for additional 24 h or 48 h with increasing concentrations of new compounds or oncolytic drugs. Following the specific treatments, in each well a volume of 20 µL of coloring mixture reagent of MTS and PES was added, and then the plates were incubated with mild agitation every 20 min for 4 h at 37 °C. The color developed during incubation was spectrophotometrically quantified at λ = 492 nm using a Dynex ELISA reader (DYNEX Technologies—MRS, Chantilly, VA, USA).
Data were expressed as percentages of cell viability of the treated cells, and were calculated and compared to the untreated cells (considered 100% viable), using the formula:Cell viability (%) = (T − B)/(U − B) × 100 where T = absorbance of treated cells, U = absorbance of untreated cells, and B = absorbance of culture medium (blank), for λ = 492 nm.
The cell viability data were expressed as the mean values ± standard deviations (SD) of three different experiments (n = 3). […]

[2] = Daphnia magna toxicity assay; format: in vivo; conditions: Daphnia magna, in vivo; 48 h
[3] = test system: Triticum vulgare root tips; assay: Microscopic examination of Triticum root tips (mitotic film changes); format: in vivo; conditions: 1000 μM, 24 h contact
Description: Microscopic examination of Triticum vulgare root tips followed the mitotic film changes induced by the tested compounds. Observations were made after 24 h of contact of the caryopses with the test solutions. The study was made in comparison with DMSO control maintained under the same conditions as the samples. To obtain microscopic preparations, sectioning of wheat embryonic roots was carried out at about 5 mm from the tip and stained with dilute […] according to the La Cour procedure. The examination was conducted on a Euromex oxion series 110–240 V/50–60 Hz microscope with digital camera CEMEX 5 DC 5000 C and 40× and 100× lenses with cedar oil immersion (Sigma-Aldrich St. Louis, MO, USA).

CCOC(=O)c1cc(CC)n2nc(-c3ccc(F)cc3)ccc12 [Compound 5e, Ethyl 7-ethyl-2-(4-fluorophenyl)pyrrolo[1,2-b]pyridazine-5-carboxylate]
viability at 400 µM ([1]; Homo sapiens, MCF7, MCF-7, 400 μM, 48 h, read-out: cell viability): 73.1% | IC50 ([1]; Homo sapiens, MCF7, MCF-7, 24 h, read-out: IC50 MCF-7 24 h): ≥ 400 µM | IC50 ([1]; Homo sapiens, MCF7, MCF-7, 48 h, read-out: IC50 MCF-7 48 h): ≥ 400 µM | cell viability ([1]; MCF-7, 100–400 μM, 48 h): less than 90% | LC50 at 48 h [2]: 675 µM | mitotic film / cell changes in root tips [3]: undulated cell walls and modified shaped nuclei; also recorded: mitoinhibition
